US8680052B1, “Methods of treating, reducing the incidence of, and/or preventing ischemic events” (The Medicines Company, priority 2013, dated 2014)
Read-outs that look alike come from different tables or passages of the source.

Legend:
[1] = system: patients with atherosclerosis undergoing PCI; type: in vivo; settings: for Agitation (Psychiatric disorders) / Chest Pain (General disorders and administration site conditions) / Diarrhea (Gastrointestinal disorders) / Dyspnea (Respiratory, thoracic, and mediastinal disorders) / Procedural Pain (Injury, poisoning, and procedural complications): treatment emergent adverse event
Protocol: The primary safety end point was severe bleeding not related to coronary-artery bypass grafting, according to the Global Use of Strategies to Open Occluded Coronary Arteries (GUSTO) criteria, at 48 hours. Several other bleeding definitions were also applied.

platelet function = settings: in vivo; cited from earlier work
[2] = system: patients undergoing percutaneous coronary intervention (PCI); settings: human, in vivo, 48 h;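 also: bleeding events compared through 48 h in the safety population, meaning patients given at least one study drug dose and grouped by treatment actually received, two-tailed tests at 0.05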
Protocol: (§1) The primary efficacy endpoint was the composite of mortality, myocardial infarction, or ischemia-driven revascularization at 48 hours. The primary analysis was performed on a modified intent-to-treat population. Confirmatory analyses were performed on an intent-to-treat population. Secondary endpoints included the individual rates of mortality, myocardial infarction, new Q-wave myocardial infarction, ischemia-driven revascularization, abrupt vessel closure, or stroke at 48 hours. Mortality at 30 days and 1 year was also recorded. The clinical events committee adjudicated myocardial infarction, Q-wave myocardial infarction, ischemia-driven revascularization, stent thromboses, and stroke (ischemic or hemorrhagic). The definition of stent thrombosis was similar to the Academic Research Consortium definition of definite stent thrombosis. After review of the prespecified analyses, two exploratory endpoints less reliant on periprocedural biomarker ascertainment were examined. The exploratory endpoints, which were composed of prespecified and adjudicated endpoints, were the composite of mortality, Q-wave myocardial infarction, or ischemia-driven revascularization and the composite of mortality, Q-wave myocardial infarction, or stent thrombosis. Bleeding and adverse events through 48 hours were compared.
(§2) All efficacy analyses were performed on the modified intent-to-treat population, defined as all randomized patients who received at least one dose of study drug and underwent the index PCI. All safety-related analyses were performed on the safety population, which included all patients who received at least one dose of assigned study drug. Patients in the safety analyses were assigned to a treatment arm based on treatment actually received, not as randomized. Intent-to-treat analyses are also presented for full disclosure of results. All statistical tests were two-tailed using a level of significance of 0.05. […] Logistic regression was also used to analyze the majority of the remaining secondary endpoints.

[3] = in vivo; cited from earlier work
[4] = system: patients undergoing percutaneous coronary intervention (PCI); test: Example 1: bleeding and adverse events through 48 hours;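 also: bleeding events compared through 48 h in the safety population, meaning patients given at least one study drug dose and grouped by treatment actually received, two-tailed tests at 0.05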
Protocol: as §1, §2

[5] = 48 hours, Non-CABG Related Bleeding, Safety, Cangrelor vs Clopidogrel
[6] = 48 hours, Non-CABG Related Bleeding, Safety, n/N
[7] = 48 hours, Non-CABG Related Bleeding, Safety, rate in parentheses
[8] = 48 hours, Non-CABG Related, Safety, Cangrelor vs Clopidogrel
[9] = 48 hours, Non-CABG Related, Safety, n/N
[10] = 48 hours, Non-CABG Related, Safety, rate in parentheses
[11] = 48 hours, non-CABG-related, safety population, Cangrelor vs Clopidogrel
[12] = 48 hours, safety population, n/N
[13] = 48-hour, safety population, cangrelor vs placebo

For `CSCCNc1nc(SCCC(F)(F)F)nc2c1ncn2[C@@H]1O[C@H](COP(=O)(O)OP(=O)(O)C(Cl)(Cl)P(=O)(O)O)[C@@H](O)[C@H]1O` [Cangrelor, cangrelor], the “rate of GUSTO-defined severe bleeding (primary safety end point)” value ([1]; 48 hours) was 0.16%, the “BARC criteria Type 3 OR” value [1, 5] was 1.69 and the “BARC criteria Type 3a OR” value [1, 5] was 2.75. The “BARC criteria Type 3b OR” value [1, 5] was 1.12, the “BARC criteria Type 3c OR” value [1, 5] was 2.00 and the “BARC criteria Type 3” value [1, 6] was 22/5529. For the same molecule, the “BARC criteria Type 3a” value [1, 6] was 11/5529, the “BARC criteria Type 3b” value [1, 6] was 9/5529 and the “BARC criteria Type 3c” value [1, 6] was 2/5529. For the same molecule, the “BARC criteria Type 3” value [1, 7] was “(0.4)”, the “BARC criteria Type 3a” value [1, 7] was “(0.2)” and the “BARC criteria Type 3b” value [1, 7] was “(0.2)”. For the same molecule, the “BARC criteria Type 3c” value [1, 7] was “(0.0)”, the “ACUITY criteria Major bleeding OR” value [1, 8] was 1.72 and the “ACUITY criteria Major without ≧ 5 cm hematoma OR” value [1, 8] was 1.62. The “ACUITY criteria Minor bleeding OR” value [1, 8] was 1.42, the “ACUITY criteria Major bleeding” value [1, 9] was 235/5529 and the “ACUITY criteria Major without ≧ 5 cm hematoma” value [1, 9] was 42/5529. The “ACUITY criteria Minor bleeding” value [1, 9] was 653/5529, the “ACUITY criteria Major bleeding” value [1, 10] was “(4.3)” and the “ACUITY criteria Major without ≧ 5 cm hematoma” value [1, 10] was “(0.8)”. The “ACUITY criteria Minor bleeding” value [1, 10] was “(11.8)”, the “odds ratio, GUSTO-defined severe bleeding” value ([1]; 48 hours, cangrelor vs clopidogrel) was 1.50 and the “GUSTO-defined moderate bleeding, Odds Ratio (95% CI)” value [1, 11] was 1.69 (0.85-3.37). For the same molecule, the “GUSTO-defined severe or life-threatening bleeding, Odds Ratio (95% CI)” value [1, 11] was 1.50 (0.53-4.22), the “GUSTO-defined severe or moderate bleeding, Odds Ratio (95% CI)” value [1, 11] was 1.63 (0.92-2.90) and the “TIMI-defined major bleeding, Odds Ratio (95% CI)” value [1, 11] was 1.00 (0.29)-3.45). The “TIMI-defined major or minor bleeding, Odds Ratio (95% CI)” value [1, 11] was 1.75 (0.73-4.18), the “TIMI-defined minor bleeding, Odds Ratio (95% CI)” value [1, 11] was 3.00 (0.81-11.10) and the “Any blood transfusion, Odds Ratio (95% CI)” value ([1]; 48 hours, safety population, Cangrelor vs Clopidogrel) was 1.56 (0.83-2.93). The “adverse events that led to discontinuation of the study drug” value ([1]; in vivo) was 0.5%, the “rate of adverse events related to treatment” value ([1]; in vivo) was 20.2% and the transient dyspnea ([1]; in vivo) was 1.2%. The “Agitation (Psychiatric disorders)” value ([1]; 48 hours, safety population) was “(0.2) %”, the “Chest Pain (General disorders and administration site conditions)” value ([1]; 48 hours, safety population) was “(1.0) %” and the “Diarrhea (Gastrointestinal disorders)” value ([1]; 48 hours, safety population) was “(0.3) %”. The “Dyspnea (Respiratory, thoracic, and mediastinal disorders)” value ([1]; 48 hours, safety population) was “(1.2) %”, the “Procedural Pain (Injury, poisoning, and procedural complications)” value ([1]; 48 hours, safety population) was “(0.1) %” and the “Agitation (Psychiatric disorders)” value [1, 12] was 11/5529. For the same molecule, the “Chest Pain (General disorders and administration site conditions)” value [1, 12] was 55/5529, the “Diarrhea (Gastrointestinal disorders)” value [1, 12] was 15/5529 and the “Dyspnea (Respiratory, thoracic, and mediastinal disorders)” value [1, 12] was 64/5529. For the same molecule, the “Procedural Pain (Injury, poisoning, and procedural complications)” value [1, 12] was 4/5529, the “platelet function returns to normal after drug termination” value (platelet function) was 30 to 60 min and the “ACUITY criteria Major bleeding” value [2] was 147 (5.5) no. (%). For the same molecule, the “ACUITY criteria Minor bleeding” value [2] was 320 (12.0) no. (%), the “Access site bleeding requiring radiologic or surgical intervention” value [2] was 8 (0.3) no. (%) and the Any blood transfusion [2] was 26 (1.0) no. (%). For the same molecule, the Any platelet transfusion [2] was 4 (0.2) no. (%), the “Any red blood cell transfusion” value [2] was 25 (0.9) no. (%) and the “Drop in hemoglobin and/or hematocrit” value [2] was 33 (1.2) no. (%). The Ecchymosis [2] was 95 (3.6) no. (%), the Epistaxis [2] was 6 (0.2) no. (%) and the “GUSTO criteria Mild bleeding” value [2] was 427 (16.0) no. (%). The “GUSTO criteria Moderate bleeding” value [2] was 20 (0.8) no. (%), the “GUSTO criteria Severe/life-threatening bleeding” value [2] was 9 (0.3) no. (%) and the “Hematoma <5 cm at puncture site” value [2] was 150 (5.6) no. (%). For the same molecule, the “Hematoma ≧5 cm at puncture site” value [2] was 115 (4.3) no. (%), the Hemodynamic compromise [2] was 7 (0.3) no. (%) and the Intracranial hemorrhage [2] was 2 (0.1) no. (%). For the same molecule, the Intraocular [2] was 0 (0.0) no. (%), the “Odds Ratio (95% CI): Any blood transfusion” value [2] was 1.624 (0.869, 3.034) and the “Odds Ratio (95% CI): Any platelet transfusion” value [2] was 1.992 (0.365, 10.887). For the same molecule, the “Odds Ratio (95% CI): Any red blood cell transfusion” value [2] was 1.665 (0.876, 3.166), the “Odds Ratio (95% CI): Drop in hemoglobin and/or hematocrit” value [2] was 0.938 (0.581, 1.514) and the “Odds Ratio (95% CI): Ecchymosis” value [2] was 1.684 (1.207, 2.349). The “Odds Ratio (95% CI): Epistaxis” value [2] was 0.497 (0.186, 1.325), the “Odds Ratio (95% CI): GUSTO criteria Mild bleeding” value [2] was 1.442 (1.232, 1.688) and the “Odds Ratio (95% CI): Reoperation for bleeding” value [2] was 0.995 (0.062, 15.924). The “Odds Ratio (95% CI): Retroperitoneal” value [2] was 1.992 (0.180, 21.978), the “Odds Ratio (95% CI): TIMI criteria Major bleeding” value [2] was 0.442 (0.136, 1.436) and the “Odds Ratio (95% CI): TIMI criteria Minor bleeding” value [2] was 1.372 (0.719, 2.618). For the same molecule, the “Odds Ratio (95% CI): Thrombocytopenia” value [2] was 0.663 (0.111, 3.973), the “Oozing at puncture site” value [2] was 125 (4.7) no. (%) and the Reoperation for bleeding [2] was 1 (0.0) no. (%). The Retroperitoneal [2] was 2 (0.1) no. (%), the “TIMI criteria Major bleeding” value [2] was 4 (0.2) no. (%) and the “TIMI criteria Minor bleeding” value [2] was 22 (0.8) no. (%). For the same molecule, the plasma half-life [3] was 3 to 5 min, the Thrombocytopenia ([4]; 48-hour, safety population) was 2 (0.1) no. (%) and the “Odds Ratio (95% CI): ACUITY criteria Major bleeding” value [4, 13] was 1.607 (1.232, 2.096). The “Odds Ratio (95% CI): ACUITY criteria Minor bleeding” value [4, 13] was 1.335 (1.120, 1.592), the “Odds Ratio (95% CI): Access site bleeding requiring radiologic or surgical intervention” value [4, 13] was 0.796 (0.314, 2.019) and the “Odds Ratio (95% CI): GUSTO criteria Moderate bleeding” value [4, 13] was 1.536 (0.762, 3.093). For the same molecule, the “Odds Ratio (95% CI): GUSTO criteria Severe/life-threatening bleeding” value [4, 13] was 1.495 (0.531, 4.205), the “Odds Ratio (95% CI): Hematoma <5 cm at puncture site” value [4, 13] was 1.270 (0.992, 1.626) and the “Odds Ratio (95% CI): Hematoma ≧5 cm at puncture site” value [4, 13] was 1.640 (1.214, 2.216). The “Odds Ratio (95% CI): Hemodynamic compromise” value [4, 13] was 1.395 (0.442, 4.400), the “Odds Ratio (95% CI): Intracranial hemorrhage” value [4, 13] was 1.992 (0.180, 21.978) and the “Odds Ratio (95% CI): Oozing at puncture site” value [4, 13] was 1.385 (1.052, 1.825). The “rates of red blood cell transfusion” value ([4]; 48 hours) was 0.9%, the incidence of dyspnea ([4]; human, in vivo, 48 h) was 1.4% and the rate of arrhythmia ([4]; human, in vivo, 48 h) was 2.3%.

For `COC(=O)[C@H](c1ccccc1Cl)N1CCc2sccc2C1` [Clopidogrel, clopidogrel, reference compound], the Any blood transfusion ([1]; human, in vivo, 48 h) was 16/5527 (0.3) number/total number (percent), the “GUSTO-defined bleeding, primary safety end point: severe or life-threatening bleeding” value ([1]; human, in vivo, 48 h) was 6/5527 (0.1) number/total number (percent) and the GUSTO-defined moderate bleeding ([1]; human, in vivo, 48 h) was 13/5527 (0.2) number/total number (percent). For the same molecule, the “GUSTO-defined severe or moderate bleeding” value ([1]; human, in vivo, 48 h) was 19/5527 (0.3) number/total number (percent), the TIMI-defined major bleeding ([1]; human, in vivo, 48 h) was 5/5527 (0.1) number/total number (percent) and the “TIMI-defined major or minor bleeding” value ([1]; human, in vivo, 48 h) was 8/5527 (0.3) number/total number (percent). The TIMI-defined minor bleeding ([1]; human, in vivo, 48 h) was 3/5527 (0.1) number/total number (percent), the “adverse events that led to discontinuation of the study drug” value ([1]; human, in vivo, 48 h) was 0.4% and the “rate of GUSTO-defined severe bleeding (primary safety end point)” value ([1]; human, in vivo, 48 h) was 0.11%. The “rate of adverse events related to treatment” value ([1]; human, in vivo, 48 h) was 19.1% and the transient dyspnea ([1]; human, in vivo, 48 h) was 0.3%.
